Twelve compounds from patent publication US5310938A, “Substituted arylpyrrole compounds” (American Cyanamid Company, priority 1993, dated 1994) can be followed below.

Structures are written as SMILES.

In test [1] the test system is Psoroptes cuniculi. The test can be described thus: Filter paper contact test against Psoroptes cuniculi (Rabbit Ear Mite). The conditions noted are these: Psoroptes ovis, 24 hour; for mortality at 4 µg/cm2, 4 µg/cm2: 4.0 μg/cm^2, read-out: 24 hour % Mortality; for mortality at 10 µg/cm2, 10 µg/cm2: 10.0 μg/cm^2. The format is in vivo. How it is done: On the day prior to the test initiation the drugs to be evaluated are dissolved in acetone and diluted to the desired concentrations. The concentration is calculated so that 400 μl contains the amount of test compound to be placed on each filter paper. 400 μl of this solution is pipetted onto a top (3.7 cm dia.) and bottom (3.5 cm dia.) filter paper disks which are then placed on a ceramic plate to dry. There is a rough and smooth side to the filter paper. Drug should be applied to the rough side which is placed up while drying. When dry the two disks are placed in a Petri dish with the rough sides facing in, separated by one 3 mm glass bead. Dishes are held at room temperature overnight if done the day before the test.
Scab (containing mites) is collected from the ears of infested rabbits the morning of the test. This material is placed in a large Petri dish under an illuminated magnifier. Mites crawl out of the scab and are easily collected on the point of a dissecting needle or one prong of a pair of fine forceps. The top filter paper in each dish is removed and 12 mites are placed on the bottom disk and the top paper replaced. Before replacing the top of the Petri dish the rim of the dish is smeared with Vaseline to trap any escaping mites.
For evaluation tests there are generally 4 replicates of each dose which are counted at 24 hours. After mites are added to the dishes, the dishes in each replicate are placed in a tray which is then placed in a plastic bag with several wet towels and held at room temperature.
After 24 hours dishes are examined under a dissecting scope. Each dish is opened carefully and the top filter paper removed and saved. A 1/2 cm circle is drawn on the bottom filter paper and the paper gently wet in the area of the circle. All mites from the dish are transferred into the wet circle area and counted. The top cover is replaced on each dish and the dishes set aside for at least 15 minutes. After standing the dishes are examined and the mites remaining on the circle counted. These mites are dead. Percent mortality of the mites is then calculated for each treatment.

Test [2] deals with Dermacentor variabilis. As to the kind of experiment: Filter paper contact test against larval stages of the Dogtick. It is filed as in vivo. To be noted: 10.0 μg/cm^2, 48 hour. The method, then: The test procedure used herein is the same procedure described in Example 2, for evaluating the arylpyrroles for control of Psoroptes cuniculi the Rabbit Ear Mite, with the following exceptions:
(1) Unfed larval ticks are obtained from egg masses laid by gravid female ticks removed from dogs and each replicate receives ticks from the same egg mass;
(2) Ticks survive longer than mites in the Petri dishes, thus readings are made 48 hours or longer after the test is initiated; and
(3) When reading the test it may be necessary to blow on the ticks to stimulate their movement.

In test [3] the test system is Caenorhabditis elegans. The test can be described thus: Nematicidal activity against C. elegans (motility rating). It is filed as in vivo, C. elegans (Bristol strain). Also on record: key: 9: complete kill; 8: no motility; 7: markedly reduced motility in approximately 95% of worms; 6: reduced motility; 5: slightly reduced motility; 0: normal motility, same as controls. To be noted: read at 4 and 24 hours post-immersion. How it is done: Cultures of C. elegans (Bristol strain from J. Lewis) are maintained on E. coli lawns on NG Agar Plates at 20° C. New cultures are established weekly.
Nematodes for testing are washed from 4-5 day old cultures using Fresh Ascaris Ringers Solution (FARS). The worms are further washed with FARS,-containing gentamycin, to reduce bacterial contamination and centrifuged to separate worms from wash solution. This procedure is repeated three times. The washed worms are then added to C. brigassae Maintenance Medium (CbMM), from GIBCOa to which is added gentamycin (600 units/ml) and mycostatin (0.5 mg/ml).
Compounds are dissolved in acetone and made up to volume with equal parts of water. The final test concentration of each compound in the mixture is 150 ppm. The test material is micropipetted (25 ul) into a single well of a 96-well sterile tissue culture plate (COSTAR)^b and the solvent allowed to evaporate. These "treated" plates are used immediately or stored in a refrigerator without apparent adverse effects on the compounds.
A freshly prepared volume ([…]) of C. elegans in CbMM is micropipetted into each treated well and several control wells per plate. Culture plates are incubated at 20° C.
Observations for efficacy are made under a dissecting microscope at 4 and 24 hours post-immersion. Immediately prior to reading the plate, it is gently tapped to stimulate the movement of the worms. Activity is judged based on the drug effects on motility of the adults and larvae. […] Other factors indicating activity are easily noted such as death, rigor mortis, contraction, coiling, paralysis, abnormal twitching, reduced worm population in 48 hours and other deviation from normal behavior.
Day 0 Inoculate E. Coli-NG Agar Dish With 30-40
Day 4 Harvest New C. Elegans Population
Add C. Elegans (25-100 µL) To "Medicated"
Observe for Activity at 4 hours Post-
Day 5 Observe For Activity

In general, mortality refers to the share of the test organisms that died.

Take `N#Cc1cc[nH]c1-c1cc(F)c(Cl)cc1Cl` [2-(2,4-Dichloro-5-fluorophenyl)pyrrole-3-carbonitrile]: the mortality at 4 µg/cm2, 4 µg/cm2 in test [1] is 73%. Take `O=[N+]([O-])c1c(-c2ccc(Cl)cc2)[nH]c(Cl)c1Cl` [2,3-Dichloro-5-(P-chlorophenyl)-4-nitropyrrole]: the results for the mortality at 10 µg/cm2, 10 µg/cm2 in test [2] and in test [1] were 58% and 91%, respectively. For the same compound, the “Rating Against C. Elegans 150 ppm” value in test [3] is on record as 9. Also, the mortality at 4 µg/cm2, 4 µg/cm2 in test [1] turned out to be 52%.

The compound `Cn1c(Cl)c(Cl)c(C#N)c1-c1ccc(OC(F)(F)F)cc1` [4,5-Dichloro-1-methyl-2-[P-(trifluoromethoxy)phenyl]-pyrrole-3-carbonitrile] showed a mortality at 10 µg/cm2, 10 µg/cm2 in test [2] of 55%.

With `CCOCn1c(Cl)c(Cl)c(C#N)c1-c1ccc(OC(F)(F)F)cc1` [4,5-Dichloro-1-(ethoxymethyl)-2-[P-(trifluoromethoxy)phenyl]pyrrole-3-carbonitrile], the mortality at 4 µg/cm2, 4 µg/cm2 in test [1] was found to be 100%.

Regarding `CCOCn1c(-c2ccc(Br)cc2)c(C#N)c(Br)c1C(F)(F)F` [4-Bromo-2-(P-bromophenyl)-1-(ethoxymethyl)-5-(trifluoromethyl)pyrrole-3-carbonitrile], the mortality at 4 µg/cm2, 4 µg/cm2 in test [1] was determined as 31%.

In the case of `N#Cc1c(-c2ccc(Cl)c(Cl)c2)[nH]c(Cl)c1Cl` [4,5-dichloro-2-(3,4-dichlorophenyl)pyrrole-3-carbonitrile], the mortality at 10 µg/cm2, 10 µg/cm2 is 40% in test [2] and 33% in test [1]. As for `CCOCn1c(C(F)(F)F)cc([N+](=O)[O-])c1-c1ccc(Cl)c(Cl)c1` [2-(3,4-Dichlorophenyl)-1-(ethoxymethyl)-3-nitro-5-(trifluoromethyl)pyrrole], the mortality at 4 µg/cm2, 4 µg/cm2 in test [1] was 92%. In the case of `CN(C)CCn1c(Cl)c(Cl)c(C#N)c1-c1ccc(Cl)c(Cl)c1` [4,5-Dichloro-2-(3,4-dichlorophenyl)-1-[2-(dimethylamino)ethyl]pyrrole-3-carbonitrile], in test [3], the “Rating Against C. Elegans 150 ppm” value was 9. Same read-out and setting: to `N#Cc1ccc(-c2[nH]c(Cl)c(Cl)c2C#N)cc1` [4,5-Dichloro-2-(P-cyanophenyl)-pyrrole-3-carbonitrile] belongs 9. As to `N#Cc1c(Br)[nH]c(-c2ccc(Cl)cc2)c1Br` [2,4-dibromo-5-(p-chlorophenyl)pyrrole-3-carbonitrile], in test [1], the mortality at 4 µg/cm2, 4 µg/cm2 was 11%. Consider `N#Cc1c(-c2ccc(Cl)cc2)[nH]c(C(F)(F)F)c1C(F)(F)F` [2-(P-chlorophenyl)-4,5-bis(trifluoromethyl)pyrrole-3-carbonitrile], for which, in test [3], the “Rating Against C. Elegans 150 ppm” value was found to be 9. As for `N#Cc1[nH]c(-c2ccc(Cl)c(Cl)c2)c([N+](=O)[O-])c1Br` [3-Bromo-5-(3,4-dichlorophenyl)-4-nitropyrrole-2-carbonitrile], the “Rating Against C. Elegans 150 ppm” value in test [3] was 9.
